Reference: patent publication US20060178394A1, “Pharmaceutical compositions comprising apomorphine for pulmonary inhalation” (priority 2003, published 2006)
“Also recorded” adds a separate entry of the source. Counter-ions that a name gives are not always drawn. Like-named read-outs stand apart in the source and are kept apart here.

Key:
[1] = intranasal delivery, clinical setting; Nastech studies; cited from earlier work
[2] = Drug retention and degradation in PE and PVC blisters
[3] = tested on: patients (quality of erection in response to VSS); experiment: Clinical study (Example 14): erection response to visual sexual stimulation after DPI inhalation; type: in vivo, human; settings: for Number of patients with quality grade 0, No effect / Number of patients with quality grade 1, Some tumescence, no rigidity / Number of patients with quality grade 2, Some tumescence and rigidity / Number of patients with quality grade 3, Partial erection / Number of patients with quality grade 4, Full erection: ITT; for Effective? / Responding (subjects with grade 3 or 4 erection) / Response rate: ITT population; for Duration, Mean: 60 min test period
Experimental: During each treatment, a patient was administered the given dose and was left alone to watch an hour of visual sexual stimulation (VSS). […] After 60 minutes, the patient's were asked to rate the quality and duration of their response to VSS. In this regard, the quality of response is defined as one of […]: 0: no effect; 1: some tumescence, no rigidity; 2: some tumescence, some rigidity, but not suitable for penetration; 3: rigidity and tumescence that would enable penetration but is not complete erection; 4: complete erection.
This study was conducted in a double blind fashion, where both the healthcare professional administering the treatment and the patient were not informed as to the actual dose being administered. The patients who participated in this study were randomised.
The primary measure of efficacy, as defined in the protocol, was the proportion of subjects reporting a grade 3 or 4 erection, using general criteria defined in the International Index of Erectile Function (IIEF). Grade 3 and 4 erections are regarded as “sufficient for successful intercourse”.

[4] = Blood analysis 70 minutes after inhalation (Example 14); type: in vivo; settings: human, inhaled, 34 patients
Experimental: For each patient, blood samples were taken 70 minutes after inhalation. The blood samples were analysed, and the blood levels for 400 and 800 microgram doses of apomorphine for each of the 34 patients that completed the test are set forth in Table 11 in nanograms per millilitre. It should be appreciated from the data discussed in Example 15 below that these blood samples were actually taken long after the plasma concentration peak.

[5] = Adverse event monitoring in the clinical study of Example 14; type: in vivo, human; settings: for All adverse events: subjects with AE, %: safety population
Text: Adverse events were monitored during each dosing period. The proportion of patients experiencing one or more adverse events was similar in all four treatment groups. No serious adverse events were observed and no adverse event led to the premature discontinuation of any subject. All adverse events were mild or moderate in severity and occurred in a small percentage of the groups treated. Table 9 is a summary of all treatment related adverse events, and Table 10 breaks treatment-related adverse events down by body system.

[6] = Phase I study: plasma pharmacokinetics of single inhaled doses (Example 15); type: in vivo, human; settings: for Tmax: median values; for Cmax: healthy male volunteers
Experimental: A phase I, double blind, randomised, placebo controlled study was conducted examining the safety, tolerability and pharmacokinetics of single 600 μg, 900 μg and 1200 μg doses in 16 healthy male volunteers. No evaluation for efficacy was conducted during the clinical study.
Pharmacokinetic plasma sampling was conducted pre-dose and at the following intervals post dose administration: 1 minute, 3 minutes, 5 minutes, 10 minutes, 15 minutes, 30 minutes, 45 minutes, 1 hour, 1.5 hours, 2 hours, 4 hours, 8 hours, 12 hours and 24 hours.
The following pharmacokinetic parameters were derived from the plasma apomorphine concentrations by non-compartmental analysis.
It should be noted that the tmax is represented as median values.

[7] = Solubility of apomorphine HCl in HFA propellant systems (solution pMDI); type: physicochemical
Experimental: However, conventional solution pMDI techniques are not believed to be appropriate for the delivery of apomorphine or its pharmaceutically acceptable salts with HFA propellants. Specifically, apomorphine base is too unstable to be formulated using current approaches and apomorphine salts are too polar to be formulated as solutions in HFA propellants. […] Even with such a system, a solution concentration of <25 μg/dose is achieved, which is well below the effective doses described above in connection with Dry Powder Inhalers.

[8] = 200 μg inhaled, grade 3 and 4 responders
[9] = 400 μg inhaled, listed as apomorphine HCl, hydrochloride
[10] = 400 μg inhaled, grade 3 and 4 responders
[11] = 800 μg inhaled, listed as apomorphine HCl, hydrochloride
[12] = male, human, plasma, inhaled or intranasal, 600 ug, 600 μg single inhaled dose, mean ± standard error
[13] = male, human, plasma, inhaled or intranasal, 900 ug, 900 μg single inhaled dose, mean ± standard error
[14] = male, human, plasma, inhaled or intranasal, 1200 ug, 1200 μg single inhaled dose, mean ± standard error

## CN1CCc2cccc3c2[C@H]1Cc1ccc(O)c(O)c1-3 [Apomorphine HCl, apomorphine hydrochloride]
[1]
  Dose that can be administered without causing unacceptable side effects: more than 2 mg
[2]; DUSA
  Mean drug retention, PE blisters: 43.6 µg
  Mean drug retention, PVC blisters: 12.9 µg
[2]; Initial stability
  Mean drug retention, PE blisters: 44.7 µg
  Mean drug retention, PVC blisters: 13.9 µg
[2]; initial stability data, related substance peaks after 1 month, hydrochloride
  Chemical stability in the presence of polyethylene (PE blisters): chemically degrades; also recorded: degradation of the formulated product takes place
[3]; 200 μg inhaled
  Duration: 24 min
  Duration, Max: 47 min
  Duration, Median: 31.5 min
  Number of patients with quality grade 0, No effect: 11
  Number of patients with quality grade 1, Some tumescence, no rigidity: 10
  Number of patients with quality grade 2, Some tumescence and rigidity: 6
  Number of patients with quality grade 3, Partial erection: 6
  Number of patients with quality grade 4, Full erection: 2
  Effective?: No
[3]; 200 μg inhaled, FIG. 12
  Onset of an erection in one patient: about 40 minutes
[3]; 200 μg inhaled, 35 evaluated
  Responding (subjects with grade 3 or 4 erection): 8
[3]; 200 μg inhaled, hydrochloride
  Response rate: 22.9%
[3]; 200 μg inhaled, N 8
  Duration, Mean: 33.3 min
[3]; [8]
  Onset, Max: 20 min post dose
  Onset, Min: 8 min post dose
[3]; 200 μg inhaled, grade 3 and 4 responders, N 8
  Onset, Mean: 13 min post dose
[3]; 400 μg inhaled
  Duration: 4 min
  Duration, Max: 54 min
  Duration, Median: 38 min
  Number of patients with quality grade 0, No effect: 8
  Number of patients with quality grade 1, Some tumescence, no rigidity: 6
  Number of patients with quality grade 2, Some tumescence and rigidity: 3
  Number of patients with quality grade 3, Partial erection: 8
  Number of patients with quality grade 4, Full erection: 8
[3]; 400 μg inhaled, FIG. 13
  Onset of an erection in one patient: about 3 minutes
[3]; 400 μg inhaled, 33 evaluated
  Responding (subjects with grade 3 or 4 erection): 16
[3]; 400 μg inhaled, listed as apomorphine HCL, hydrochloride
  Effective?: effective
[3]; [9]
  Effective?: effective and Yes
  Response rate: 48.5%
[3]; 400 μg inhaled, N 16
  Duration, Mean: 31.1 min
[3]; [10]
  Onset, Max: 28 min post dose
  Onset, Median: 8 min post dose
[3]; 400 μg inhaled, grade 3 and 4 responders, N 16
  Onset, Mean: 11 min post dose
[3]; 400 μg inhaled, grade 3 and 4 responders, hydrochloride
  Onset, Min: 3 min post dose
[3]; 800 μg inhaled
  Duration: 6 min
  Duration, Max: 54 min
  Duration, Median: 36 min
  Number of patients with quality grade 1, Some tumescence, no rigidity: 3
  Number of patients with quality grade 2, Some tumescence and rigidity: 7
  Number of patients with quality grade 3, Partial erection: 6
  Number of patients with quality grade 4, Full erection: 14
[3]; 800 μg inhaled, FIG. 14
  Onset of an erection in one patient: about 4 minutes
[3]; 800 μg inhaled, 34 evaluated
  Responding (subjects with grade 3 or 4 erection): 20
[3]; 800 μg inhaled, listed as apomorphine HCL, hydrochloride
  Effective?: effective
[3]; [11]
  Effective?: effective and Yes
  Response rate: 58.8%
[3]; 800 μg inhaled, N 19
  Duration, Mean: 31.2 min
[3]; 800 μg inhaled, grade 3 and 4 responders
  Onset, Max: 17 min post dose
[3]; 800 μg inhaled, grade 3 and 4 responders, N 19
  Onset, Mean: 10 min post dose
[3]; 800 μg inhaled, grade 3 and 4 responders, hydrochloride
  Onset, Min: 3 min post dose
[3]; pulmonary inhalation
  Lowest inhaled dose at which the clinical effect is observed: 400 µg
[4]; 400 μg, 400 μg inhaled, read-out: Blood level 70 minutes after dosing, Mean
  concentration at 70 min: 0.215 ng/mL
[4]; 400 μg, 400 μg inhaled, read-out: Blood level 70 minutes after dosing, Median
  concentration at 70 min: 0.217 ng/mL
[4]; 800 μg, 800 μg inhaled, read-out: Blood level 70 minutes after dosing, Mean
  concentration at 70 min: 0.608 ng/mL
[4]; 800 μg, 800 μg inhaled, read-out: Blood level 70 minutes after dosing, Median
  concentration at 70 min: 0.567 ng/mL
[5]; 200 μg inhaled
  Treatment-related AE: Cough, %: 3%
  Treatment-related AE: Dizziness, %: 3%
  Treatment-related AE: Nasal congestion, %: 3%
  Treatment-related AE: Nervous system disorders, %: 3%
  Treatment-related AE: Respiratory, thoracic & mediastinal disorders, %: 3%
  Treatment-related AE: Sneezing, %: 3%
  Treatment-related adverse events: subjects with AE, %: 6%
  All adverse events: subjects with AE, %: 9%
[5]; 400 μg inhaled
  Treatment-related AE: Dry throat, %: 3%
  Treatment-related AE: Pharyngolaryngeal pain, %: 6%
  Treatment-related AE: Respiratory, thoracic & mediastinal disorders, %: 9%
  Treatment-related adverse events: subjects with AE, %: 9%
  All adverse events: subjects with AE, %: 9%
[5]; 800 μg inhaled
  Treatment-related AE: Dizziness, %: 6%
  Treatment-related AE: Gastrointestinal disorders, %: 3%
  Treatment-related AE: Nausea, %: 3%
  Treatment-related AE: Nervous system disorders, %: 6%
  Treatment-related adverse events: subjects with AE, %: 6%
[5]; 800 μg inhaled, hydrochloride
  All adverse events: subjects with AE, %: 6%
[6]; 600 μg single inhaled dose, mean ± standard error
  AUC0-∞: 176.4 ± 26.9 ng·min/mL
[6]; 900 μg single inhaled dose, hydrochloride
  Tmax: 1 min
[6]; 1200 μg single inhaled dose, hydrochloride
  Tmax: 1 min
[6]; 600, 900, 1200 μg inhaled
  Dose proportionality for Cmax, AUC0-∞ and AUC0-t: demonstrated
[6]; male, human, plasma, inhaled or intranasal, 600 ug, 600 μg inhaled, comparison table with Uprima
  AUC(0-inf): 2.2 ng·h/mL
[6]; [12]
  Cmax: 3.5 to 4.9 ng/mL
  AUC(0-t): 2.23 ng·h/mL
[6]; male, human, plasma, inhaled or intranasal, 600 ug, 600 μg single inhaled dose, read-out: tmax (converted)
  Tmax: 3 min
[6]; male, human, plasma, inhaled or intranasal, 900 ug, 900 μg inhaled, comparison table with Uprima
  AUC(0-inf): 3.4 ng·h/mL
[6]; [13]
  Cmax: 7.4 to 8.8 ng/mL
  AUC(0-inf): 3.84 ng·h/mL
  AUC(0-t): 3.42 ng·h/mL
[6]; male, human, plasma, inhaled or intranasal, 900 ug, 900 μg single inhaled dose, read-out: tmax (converted)
  Tmax: 1 min
[6]; male, human, plasma, inhaled or intranasal, 1200 ug, 1200 μg inhaled, comparison table with Uprima
  AUC(0-inf): 5.5 ng·h/mL
[6]; [14]
  Cmax: 9.2 to 16.2 ng/mL
  AUC(0-inf): 5.5 ng·h/mL
  AUC(0-t): 4.93 ng·h/mL
[6]; male, human, plasma, inhaled or intranasal, 1200 ug, 1200 μg single inhaled dose, read-out: tmax (converted)
  Tmax: 1 min
[7]; HFA propellant solution pMDI systems
  Ethanol required for suitable or acceptable solubility: at least 50%
[7]; HFA propellant system with at least 50% ethanol
  Solution concentration achieved: < 25 μg/dose
